Experimental data from patent US20250221998A1, “DISCOVERY OF COVALENT EGFR INHIBITOR THROUGH CYSTEINE 775” (Dana-Farber Cancer Institute, Inc., priority 2022, published 2025).

Legend:
Type in all cases: cell-based, murine
[1] = molecular target: EGFR mutant L858R Ba/F3 cells (Homo sapiens, UniProt P00533, L858R, cells depend on it); assay: Ba/F3 cell proliferation (Cell Titer Glo), EGFR L858R; conditions: 72 hours exposure, read-out: L858R BaF3 (μM), inhibitory activity against EGFR mutants
Outline: (§1)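 Ba/F3 cells stably expressing retrovirally transduced EGFR L858R, L858R/C797S or L858R/C775S, puromycin-selected. Compound exposure 72 hours in triplicate; viability by Cell Titer Glo ATP luminescence.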

[2] = molecular target: EGFR L858R/C797S Ba/F3 cells (Homo sapiens, UniProt P00533, C797S/L858R, cells depend on it); assay: Ba/F3 cell proliferation (Cell Titer Glo), EGFR L858R/C797S; conditions: 72 hours exposure, read-out: L858R/C797S (μM), inhibitory activity against EGFR mutants
Outline: as §1

[3] = molecular target: EGFR L858R/C775S Ba/F3 cells (Homo sapiens, UniProt P00533, C775S/L858R, cells depend on it); assay: Ba/F3 cell proliferation (Cell Titer Glo), EGFR L858R/C775S; conditions: 72 hours exposure, read-out: L858R/C775S (μM), inhibitory activity against EGFR mutants
Text: The EGFR mutant L858R Ba/F3 cells have been previously described (Zhou, W., et al. Nature 462, 2009, 1070-1074). The EGFR C797S and C775S mutations were introduced via site directed mutagenesis using the Quick Change Site-Directed Mutagenesis kit into a vector containing EGFR L858R mutation (Stratagene; La Jolla, CA) according to the manufacturer's instructions. All constructs were confirmed by DNA sequencing. The constructs were then shuttled into the retroviral vector JP1540 by either using the Cre-recombination system (Agilent Technologies, Santa Clara, CA) or the In-fusion HD Cloning kit (Takara Bio USA, Inc.; Mountain view, CA). Ba/F3 cells were then infected with retrovirus per standard protocols, as described previously (Zhou, et al, Nature 2009). Stable clones were obtained by selection in puromycin (2 ug/ml). All BaF/3 mutant cells were maintained in RPMI 1640 (Cellgro; Mediatech Inc., Herndon, CA) supplemented with 10% FBS, 100 units/mL penicillin, 100 units/mL streptomycin.
Growth and inhibition of growth was assessed by the Cell Titer Glo assay (Promega, Madison, WI) and was performed according to the manufacturer's instructions. The Cell Titer Glo assay is a luminescence-based method used to determine the number of viable cells based on quantitation of the ATP present, which is directly proportional to the amount of metabolically active cells present. Ba/F3 cells of different EGFR genotypes were exposed to compounds for 72 hours and the number of cells used per experiment was determined empirically as has been previously established (Zhou, et al., Nature 2009). All experimental points were set up in triplicates in 384-well plates. […] The curves were fitted using a non-linear regression model with a sigmoidal dose response.
For inhibitory activity against EGFR mutants, the following designations are used: ≤0·25 μM=A, 0·25 μM˜0.5 μM=B, 0.5 μM˜2.5 μM=C, ≥2.5 μM=D.

EGFR L858R/C775S Ba/F3 cells, sequence (P00533 whole entry C775S/L858R, the tested form may be a part): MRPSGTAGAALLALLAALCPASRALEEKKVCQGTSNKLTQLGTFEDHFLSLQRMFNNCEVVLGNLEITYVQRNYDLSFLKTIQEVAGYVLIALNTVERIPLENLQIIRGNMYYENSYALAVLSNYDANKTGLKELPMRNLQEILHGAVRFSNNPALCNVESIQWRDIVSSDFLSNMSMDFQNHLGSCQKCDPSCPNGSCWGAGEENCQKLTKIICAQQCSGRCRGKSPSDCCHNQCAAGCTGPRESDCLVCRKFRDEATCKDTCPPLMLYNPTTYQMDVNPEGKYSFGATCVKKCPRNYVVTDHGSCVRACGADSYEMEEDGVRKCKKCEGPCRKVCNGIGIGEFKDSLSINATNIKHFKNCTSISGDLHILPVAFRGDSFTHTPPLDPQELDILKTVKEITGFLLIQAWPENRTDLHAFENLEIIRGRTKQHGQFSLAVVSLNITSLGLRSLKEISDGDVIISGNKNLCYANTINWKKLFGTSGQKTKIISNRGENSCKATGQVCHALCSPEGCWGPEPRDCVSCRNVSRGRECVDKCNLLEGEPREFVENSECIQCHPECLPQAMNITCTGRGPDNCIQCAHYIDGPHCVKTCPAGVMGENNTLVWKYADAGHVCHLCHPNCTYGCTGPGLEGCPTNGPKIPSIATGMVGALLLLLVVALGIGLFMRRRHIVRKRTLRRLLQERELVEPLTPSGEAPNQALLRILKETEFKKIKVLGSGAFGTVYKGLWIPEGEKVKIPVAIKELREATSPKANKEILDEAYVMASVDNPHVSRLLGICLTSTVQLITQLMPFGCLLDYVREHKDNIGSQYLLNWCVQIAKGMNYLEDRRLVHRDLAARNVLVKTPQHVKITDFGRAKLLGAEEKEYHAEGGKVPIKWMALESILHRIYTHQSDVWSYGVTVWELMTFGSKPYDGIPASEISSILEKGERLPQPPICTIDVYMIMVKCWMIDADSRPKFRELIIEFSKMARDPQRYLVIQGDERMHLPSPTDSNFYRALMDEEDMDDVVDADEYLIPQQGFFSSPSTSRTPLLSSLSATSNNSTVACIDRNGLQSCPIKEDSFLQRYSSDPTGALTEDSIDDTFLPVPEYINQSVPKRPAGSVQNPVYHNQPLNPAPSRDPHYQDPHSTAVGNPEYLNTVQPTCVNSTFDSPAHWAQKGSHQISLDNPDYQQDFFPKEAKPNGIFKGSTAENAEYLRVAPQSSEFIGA
EGFR L858R/C797S Ba/F3 cells, sequence (P00533 whole entry C797S/L858R): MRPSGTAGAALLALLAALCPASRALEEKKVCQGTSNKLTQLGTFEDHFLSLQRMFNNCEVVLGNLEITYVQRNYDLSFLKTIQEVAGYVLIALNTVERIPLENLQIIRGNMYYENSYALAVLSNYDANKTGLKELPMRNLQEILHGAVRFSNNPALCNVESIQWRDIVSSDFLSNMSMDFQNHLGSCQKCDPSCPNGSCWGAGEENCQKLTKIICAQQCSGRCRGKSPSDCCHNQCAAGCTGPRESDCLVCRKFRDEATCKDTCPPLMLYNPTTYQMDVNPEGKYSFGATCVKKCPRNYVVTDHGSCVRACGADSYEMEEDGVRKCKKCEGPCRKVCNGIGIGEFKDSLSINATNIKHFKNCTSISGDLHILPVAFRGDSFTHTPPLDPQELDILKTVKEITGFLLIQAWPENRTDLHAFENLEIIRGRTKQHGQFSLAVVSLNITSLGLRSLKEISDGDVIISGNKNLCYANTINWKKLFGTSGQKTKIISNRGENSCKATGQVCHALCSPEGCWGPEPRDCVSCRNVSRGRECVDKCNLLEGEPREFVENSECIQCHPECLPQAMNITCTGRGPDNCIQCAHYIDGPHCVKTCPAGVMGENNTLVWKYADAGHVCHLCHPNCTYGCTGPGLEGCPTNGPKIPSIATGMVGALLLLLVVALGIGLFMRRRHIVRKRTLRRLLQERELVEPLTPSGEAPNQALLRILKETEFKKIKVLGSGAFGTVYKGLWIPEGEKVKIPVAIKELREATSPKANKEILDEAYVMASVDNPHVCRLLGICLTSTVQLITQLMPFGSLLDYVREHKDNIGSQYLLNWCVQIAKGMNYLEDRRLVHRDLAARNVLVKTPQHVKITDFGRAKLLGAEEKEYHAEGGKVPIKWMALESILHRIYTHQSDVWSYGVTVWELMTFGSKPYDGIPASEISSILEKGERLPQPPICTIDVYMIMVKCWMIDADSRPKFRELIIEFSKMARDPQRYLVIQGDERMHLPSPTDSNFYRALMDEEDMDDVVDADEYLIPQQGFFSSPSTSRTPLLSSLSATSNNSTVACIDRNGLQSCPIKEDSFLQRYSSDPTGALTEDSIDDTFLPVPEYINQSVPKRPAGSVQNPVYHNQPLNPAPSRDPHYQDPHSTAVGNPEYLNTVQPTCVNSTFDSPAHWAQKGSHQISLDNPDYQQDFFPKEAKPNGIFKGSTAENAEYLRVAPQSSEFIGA
EGFR mutant L858R Ba/F3 cells, sequence (P00533 whole entry L858R): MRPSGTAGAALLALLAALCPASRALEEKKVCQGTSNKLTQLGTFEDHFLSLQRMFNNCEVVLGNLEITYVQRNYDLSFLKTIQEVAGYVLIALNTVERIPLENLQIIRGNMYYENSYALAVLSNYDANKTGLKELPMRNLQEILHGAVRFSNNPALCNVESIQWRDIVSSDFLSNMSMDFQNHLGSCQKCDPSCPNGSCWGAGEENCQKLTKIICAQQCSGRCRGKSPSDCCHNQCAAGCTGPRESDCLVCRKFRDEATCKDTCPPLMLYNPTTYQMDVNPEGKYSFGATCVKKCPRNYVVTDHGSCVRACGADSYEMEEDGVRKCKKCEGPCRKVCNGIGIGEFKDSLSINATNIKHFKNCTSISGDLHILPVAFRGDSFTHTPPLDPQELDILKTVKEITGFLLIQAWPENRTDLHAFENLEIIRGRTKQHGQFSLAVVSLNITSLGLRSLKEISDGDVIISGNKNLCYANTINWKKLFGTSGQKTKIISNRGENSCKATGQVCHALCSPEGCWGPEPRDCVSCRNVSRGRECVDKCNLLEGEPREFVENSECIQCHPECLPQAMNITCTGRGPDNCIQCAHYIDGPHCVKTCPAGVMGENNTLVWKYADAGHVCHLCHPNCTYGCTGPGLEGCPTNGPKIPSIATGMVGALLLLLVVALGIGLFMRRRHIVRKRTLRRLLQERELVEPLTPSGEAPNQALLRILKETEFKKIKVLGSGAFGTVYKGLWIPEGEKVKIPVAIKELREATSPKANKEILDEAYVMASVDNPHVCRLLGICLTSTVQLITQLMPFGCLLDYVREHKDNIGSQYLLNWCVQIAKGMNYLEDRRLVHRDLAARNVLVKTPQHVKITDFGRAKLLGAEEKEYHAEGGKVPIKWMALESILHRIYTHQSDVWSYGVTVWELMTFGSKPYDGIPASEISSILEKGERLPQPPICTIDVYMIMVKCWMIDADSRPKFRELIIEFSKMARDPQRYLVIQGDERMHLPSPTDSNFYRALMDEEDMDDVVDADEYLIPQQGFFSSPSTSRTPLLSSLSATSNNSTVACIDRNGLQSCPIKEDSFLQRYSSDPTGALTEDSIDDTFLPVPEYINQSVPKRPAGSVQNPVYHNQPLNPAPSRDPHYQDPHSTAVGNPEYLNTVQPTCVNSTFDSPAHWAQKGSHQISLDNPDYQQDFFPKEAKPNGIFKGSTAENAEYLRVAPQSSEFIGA

Row | Structure (SMILES) | GI50 [1] [µM] | GI50 [2] [µM] | GI50 [3] [µM]
1 | C=CC(=O)N1CCc2cccc(Oc3cc4cnc(Nc5ccc(N6CCN(C)CC6)cc5)nc4n(C)c3=O)c21 [Compound 003] | 0.5 to 2.5 | ≥ 2.5 | 0.5 to 2.5
2 | C=CC(=O)Nc1ccccc1Oc1cc2cnc(Nc3ccc(N4CCN(C)CC4)cc3OC)nc2n(C)c1=O [Compound 004] | 0.25 to 0.5 | 0.5 to 2.5 | ≥ 2.5
3 | C=CC(=O)Nc1ccccc1Oc1cc2cnc(Nc3ccc(N4CCN(C)CC4)nc3)nc2n(C)c1=O [Compound 005] | 0.5 to 2.5 | ≥ 2.5 | ≥ 2.5
4 | C#CC(=O)Nc1ccccc1Oc1cc2cnc(Nc3ccc(N4CCN(C)CC4)cc3)nc2n(C)c1=O [Compound 006, N-[2-[8-methyl-2-[4-(4-methylpiperazin-1-yl)anilino]-7-oxo-pyrido[2,3-d]pyrimidin-6-yl]oxyphenyl]prop-2-ynamide] | 0.25 to 0.5 | ≥ 2.5 | ≥ 2.5
5 | C=CC(=O)Nc1ccccc1Oc1cc2cnc(Nc3ccc(N4CCN(C)CC4)cc3)nc2n(C2CCCN(C(C)=O)C2)c1=O (stereo not drawn) [Compound 007, N-[2-[8-(1-acetyl-3-piperidyl)-2-[4-(4-methylpiperazin-1-yl)anilino]-7-oxo-pyrido[2,3-d]pyrimidin-6-yl]oxyphenyl]prop-2-enamide] | 0.25 to 0.5 | ≥ 2.5 | ≥ 2.5
6 | C=CC(=O)Nc1ccccc1Oc1cc2cnc(Nc3ccc(N4CCN(C)CC4)cc3)nc2n(-c2cccc(NC(C)=O)c2)c1=O [Compound 008] | 0.5 to 2.5 | ≥ 2.5 | ≥ 2.5
7 | C=CC(=O)N1CCN(c2cc3cnc(Nc4ccc(N5CCN(C)CC5)cc4)nc3n(C)c2=O)CC1 [Compound 009, 8-methyl-2-[4-(4-methylpiperazin-1-yl)anilino]-6-(4-prop-2-enoylpiperazin-1-yl)pyrido[2,3-d]pyrimidin-7-one] | ≥ 2.5 | ≥ 2.5 | ≥ 2.5
8 | C=CC(=O)N1CCN(c2cc3cnc(N)nc3n(-c3cccc(O)c3)c2=O)c2cccc(C)c21 [Compound 098, 2-amino-8-(3-hydroxyphenyl)-6-(5-methyl-4-prop-2-enoyl-2,3-dihydroquinoxalin-1-yl)pyrido[2,3-d]pyrimidin-7-one] | 0.25 to 0.5 | 0.5 to 2.5 | –
9 | C=CC(=O)N1CCN(c2cc3cnc(N)nc3n(-c3ccc(N(C)CCN(C)C)cc3)c2=O)c2cccc(C)c21 [Compound 101, 2-amino-8-[4-[2-(dimethylamino)ethyl-methyl-amino]phenyl]-6-(5-methyl-4-prop-2-enoyl-2,3-dihydroquinoxalin-1-yl)pyrido[2,3-d]pyrimidin-7-one] | 0.25 to 0.5 | 0.5 to 2.5 | –
10 | C=CC(=O)N1CCN(c2cc3cnc(N)nc3n(-c3ccc(CN4CCN(C)CC4)cc3)c2=O)c2cccc(C)c21 [Compound 103, 2-amino-8-[4-[(4-methylpiperazin-1-yl)methyl]phenyl]-6-(5-methyl-4-prop-2-enoyl-2,3-dihydroquinoxalin-1-yl)pyrido[2,3-d]pyrimidin-7-one] | 0.25 to 0.5 | 0.5 to 2.5 | –

The remaining lines, values ahead:

Row | GI50 [1] [µM] | GI50 [2] [µM] | GI50 [3] [µM] | Structure (SMILES)
11 | 0.25 to 0.5 | 0.5 to 2.5 | 0.5 to 2.5 | C=CC(=O)Nc1ccccc1Cc1cc2cnc(Nc3ccc(N4CCN(C)CC4)cc3)nc2n(C)c1=O [Compound 001, N-[2-[[8-methyl-2-[4-(4-methylpiperazin-1-yl)anilino]-7-oxo-pyrido[2,3-d]pyrimidin-6-yl]methyl]phenyl]prop-2-enamide]
12 | ≤ 0.25 | 0.25 to 0.5 | ≥ 2.5 | C=CC(=O)Nc1ccccc1Oc1cc2cnc(Nc3ccc(N4CCN(C)CC4)cc3)nc2n(C)c1=O [Compound 002, N-[2-[8-methyl-2-[4-(4-methylpiperazin-1-yl)anilino]-7-oxo-pyrido[2,3-d]pyrimidin-6-yl]oxyphenyl]prop-2-enamide]
13 | ≤ 0.25 | ≤ 0.25 | ≥ 2.5 | C=CC(=O)N1CCN(c2cc3cnc(Nc4ccc(N5CCN(C)CC5)cc4)nc3n(C)c2=O)c2ccccc21 [Compound 010, 8-methyl-2-[4-(4-methylpiperazin-1-yl)anilino]-6-(4-prop-2-enoyl-2,3-dihydroquinoxalin-1-yl)pyrido[2,3-d]pyrimidin-7-one]
14 | ≤ 0.25 | ≤ 0.25 | – | C=CC(=O)N1CCN(c2cc3cnc(NC4CC4)nc3n(-c3ccc(N(C)CCN(C)C)cc3)c2=O)c2cccc(C)c21 [Compound 095, 2-(cyclopropylamino)-8-[4-[2-(dimethylamino)ethyl-methyl-amino]phenyl]-6-(5-methyl-4-prop-2-enoyl-2,3-dihydroquinoxalin-1-yl)pyrido[2,3-d]pyrimidin-7-one]
15 | ≤ 0.25 | ≤ 0.25 | – | C=CC(=O)N1CCN(c2cc3cnc(NC4CC4)nc3n(C3CCOC3)c2=O)c2cccc(C)c21 (stereo not drawn) [Compound 096, 2-(cyclopropylamino)-6-(5-methyl-4-prop-2-enoyl-2,3-dihydroquinoxalin-1-yl)-8-tetrahydrofuran-3-yl-pyrido[2,3-d]pyrimidin-7-one]
16 | ≤ 0.25 | ≤ 0.25 | – | C=CC(=O)N1CCN(c2cc3cnc(NC4CC4)nc3n(C3CCOCC3)c2=O)c2cccc(C)c21 [Compound 097, 2-(cyclopropylamino)-6-(5-methyl-4-prop-2-enoyl-2,3-dihydroquinoxalin-1-yl)-8-tetrahydropyran-4-yl-pyrido[2,3-d]pyrimidin-7-one]
17 | ≤ 0.25 | ≤ 0.25 | – | C=CC(=O)N1CCN(c2cc3cnc(N)nc3n(-c3ccc(N(C)CCOC)cc3)c2=O)c2cccc(C)c21 [Compound 099, 2-amino-8-[4-[2-methoxyethyl(methyl)amino]phenyl]-6-(5-methyl-4-prop-2-enoyl-2,3-dihydroquinoxalin-1-yl)pyrido[2,3-d]pyrimidin-7-one]
18 | ≤ 0.25 | ≤ 0.25 | – | C=CC(=O)N1CCN(c2cc3cnc(NC4CC4)nc3n(-c3ccc(N(C)CCOC)cc3)c2=O)c2cccc(C)c21 [Compound 100, 2-(cyclopropylamino)-8-[4-[2-methoxyethyl(methyl)amino]phenyl]-6-(5-methyl-4-prop-2-enoyl-2,3-dihydroquinoxalin-1-yl)pyrido[2,3-d]pyrimidin-7-one]
19 | ≤ 0.25 | ≤ 0.25 | – | C=CC(=O)N1CCN(c2cc3cnc(NC4CCC4)nc3n(-c3ccc(N(C)CCN(C)C)cc3)c2=O)c2cccc(C)c21 [Compound 102, 2-(cyclobutylamino)-8-[4-[2-(dimethylamino)ethyl-methyl-amino]phenyl]-6-(5-methyl-4-prop-2-enoyl-2,3-dihydroquinoxalin-1-yl)pyrido[2,3-d]pyrimidin-7-one]
20 | ≤ 0.25 | ≤ 0.25 | – | C=CC(=O)N1CCN(c2cc3cnc(N)nc3n(-c3ccc(OCCN(C)C)c(F)c3)c2=O)c2cccc(C)c21 [Compound 104, 2-amino-8-[4-[2-(dimethylamino)ethoxy]-3-fluoro-phenyl]-6-(5-methyl-4-prop-2-enoyl-2,3-dihydroquinoxalin-1-yl)pyrido[2,3-d]pyrimidin-7-one]
21 | ≤ 0.25 | ≤ 0.25 | – | C=CC(=O)N1CCN(c2cc3cnc(NC4CC4)nc3n(C3CCN(C)CC3)c2=O)c2cccc(C)c21 [Compound 105, 2-(cyclopropylamino)-8-(1-methyl-4-piperidyl)-6-(5-methyl-4-prop-2-enoyl-2,3-dihydroquinoxalin-1-yl)pyrido[2,3-d]pyrimidin-7-one]
22 | ≤ 0.25 | 0.25 to 0.5 | – | C=CC(=O)N1CCN(c2cc3cnc(NC4CC4)nc3n(CC3CCOC3)c2=O)c2cccc(C)c21 (stereo not drawn) [Compound 106, 2-(cyclopropylamino)-6-(5-methyl-4-prop-2-enoyl-2,3-dihydroquinoxalin-1-yl)-8-(tetrahydrofuran-3-ylmethyl)pyrido[2,3-d]pyrimidin-7-one]
